Assay results from patent US8304443B2, “Indazole derivatives” (Asahi Kasei Pharma Corporation, priority 2008, dated 2012).
pEC50: −log10 of the molar value. In brackets after ≈: the same amount, converted by molar mass.

Legend:
[1] = Test example 11: solubility test in hydrochloric acid buffer solution having pH 1.2; assay type: physicochemical; settings: 37 °C, pH 1.2, simulated gastric fluid, thermodynamic from solid, pH 1.2, 37° C., prepared at 1000 μg/mL
Experimental: 500 μg of the test compound is precisely weighed, and then added with hydrochloric acid buffer solution having pH 1.2 until the concentration of 1000 μg/mL is obtained. The […] is shaken at 37° C. for 1 hour. To a filter tube, the entire solution obtained after the shaking is transferred and is subjected to centrifugal filtration at room temperature. The filtrate is analyzed by HPLC, and by using a calibration curve, saturation solubility of the test compound is obtained from the peak area value.
Standard solution is prepared by precisely weighing 500 μg of the test compound and dissolving it DMSO to obtain the concentration of 1 mg/mL.
As a separation column, YMC-Pack C18 (4.6 mm×150 mm, manufactured by YMC) is used. Detection is made at UV-254 nm and the temperature inside the column is 40° C. Condition for elution is as follows; with flow rate of 1 ml/minute, solution A as a solvent=water [comprising 0.1% (v/v) acetic acid] and solution B=acetonitrile are used, and from minute 0 to minute 20, 5 to 98% (v/v) linear gradient of solution B is applied, followed by elution with 98% of solution B until minute 25 and elution with 5% of solution B from minute 25.01 to minute 35.

[2] = molecular target: T1, human α1A adrenergic receptor (Homo sapiens, UniProt P35348); assay: Test example 4: human α1A adrenergic receptor agonist activity (Ca flux, Fura-2); assay type: cell-based; settings: for Emax: Table 4, Test example 4, maximum response to norephinephrine taken as 100%, read-out: α1A receptor I.A.
T1 construct: expressed in transfected cells; host or cells: HEK293 cells, pcDNA3.1(−), geneticin-selected
T1 sequence (P35348 1-466): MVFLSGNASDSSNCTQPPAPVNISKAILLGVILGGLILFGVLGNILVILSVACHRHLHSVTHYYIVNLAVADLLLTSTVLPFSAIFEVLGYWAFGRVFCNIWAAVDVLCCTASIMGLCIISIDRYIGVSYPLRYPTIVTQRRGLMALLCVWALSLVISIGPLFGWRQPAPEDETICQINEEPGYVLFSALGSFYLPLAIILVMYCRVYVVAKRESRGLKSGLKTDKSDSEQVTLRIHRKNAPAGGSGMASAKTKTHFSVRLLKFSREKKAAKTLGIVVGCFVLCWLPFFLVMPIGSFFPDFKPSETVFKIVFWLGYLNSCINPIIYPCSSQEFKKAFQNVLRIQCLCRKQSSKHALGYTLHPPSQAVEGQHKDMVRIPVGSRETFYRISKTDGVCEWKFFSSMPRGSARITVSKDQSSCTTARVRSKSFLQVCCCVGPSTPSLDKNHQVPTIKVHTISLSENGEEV
Experimental: Human α1A adrenergic receptor agonist activity is determined by using HEK293 cells transfected with pcDNA3.1(−) (Invitrogen) to which human α1A gene has been inserted. These cells are cultured in a DMEM medium containing 10% fetal bovine serum, 400 μg/mL geneticin (Gibco BRL), 100 U/ml penicillin and 100 μg/ml streptomycin. […] After carrying out the loading for 30 minutes in a CO2 incubator, excess Fura-2AM is removed by washing the cells twice with the assay buffer. The cells obtained after the centrifuge is prepared to 5×10^6 cells/ml by using the assay buffer, and aliquoted into a 96-well UV plate (manufactured by Corning Inc.) to give a cell plate (80 μl/well). […] After the measurement for about 30 seconds, 20 μl of the test sample from the sample plate is added to the cell plate and the measurement is continued for another 270 seconds. Ca flux caused by the test compound is obtained from the peak height difference between the maximum value of fluorescence intensity ratio at 340 nm and 380 nm after the addition of the test compound and the fluorescence intensity ratio before the addition of the test compound. Maximum response to norephinephrine as a positive control is taken as 100%, and the maximum response ratio of each test compound is obtained as Intrinsic Activity [I.A. (%)].

[3] = molecular target: T2, human β3 adrenergic receptor (Homo sapiens, UniProt P13945); assay: Test example 1-B: human β3 adrenergic receptor agonist activity (cAMP-Screen, 96-well); assay type: cell-based; settings: for Emax: 0.5 h, read-out: β3 receptor I.A.; for pEC50: Table 4, Test example 1-B, CHO cells with human β3 gene, cAMP
T2 construct: used as a probe to obtain the full length human β3 gene from a human genomic library (Clonetech); expressed in transfected cells; host or cells: CHO (Chinese hamster ovary) cells, pcDNA3, geneticin-selected
Experimental: Human β3 adrenergic receptor agonist activity is determined using CHO (Chinese hamster ovary) cells transfected with pcDNA3 (Invitrogen) to which human β3 gene has been inserted. […] This human β3 cDNA fragment is used as a probe to obtain the full length human β3 gene from a human genomic library (Clonetech). The above cells are cultured in a Ham's F-12 medium containing 10% fetal bovine serum and 400 μg/mL geneticin (Invitrogen). After seeding these cells into a 96-well plate (2×10^4 cells/well) and culturing them for about 20 hours, they are allowed to stand in a serum-free Ham's F-12 medium (80 μL) for 15 minutes. The test compound is first dissolved in DMSO, serially diluted with Ham's F-12 comprising 100 mmol/L HEPES and 1 mmol/L isobutylmethylxanthine, and then 20 μL of the solution is added to the cells. After the cells are cultured for 30 minutes, the medium is removed, followed by addition of assay/lysis buffer (0.1 ml) included in cAMP-Screen Kit (manufactured by Applied Biosystems). The cells are incubated for 30 minutes at 37° C. The resulting cell lysate is determined to cAMP quantitation by using cAMP-Screen kit described above.

T2 sequence (P13945 whole entry): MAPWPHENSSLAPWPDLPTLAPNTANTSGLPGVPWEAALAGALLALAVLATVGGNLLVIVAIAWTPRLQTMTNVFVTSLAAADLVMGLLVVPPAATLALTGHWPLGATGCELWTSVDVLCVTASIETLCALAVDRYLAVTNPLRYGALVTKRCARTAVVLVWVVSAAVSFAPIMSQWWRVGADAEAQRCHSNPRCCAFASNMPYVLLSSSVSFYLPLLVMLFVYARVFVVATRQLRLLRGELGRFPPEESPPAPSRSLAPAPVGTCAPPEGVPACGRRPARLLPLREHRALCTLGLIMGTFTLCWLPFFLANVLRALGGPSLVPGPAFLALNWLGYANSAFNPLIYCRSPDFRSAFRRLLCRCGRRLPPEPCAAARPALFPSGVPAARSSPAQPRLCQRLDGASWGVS

| SMILES | solubility at 1 h [1] [µg/mL] | pEC50 [2] | Emax [2] [%] | Emax [3] [%] | pEC50 [3] |
| --- | --- | --- | --- | --- | --- |
| CS(=O)(=O)Nc1cccc([C@@H](O)CNCCOc2ccc3c(C4CC4)n[nH]c3c2)c1 [Example 1, (R)—N-(3-(1-Hydroxy-2-(2-(3-cyclopropylindazol-6-yloxy)ethylamino)ethyl)phenyl)methanesulfonamide] | 982 (≈ 2280 µM) | 5.78 | 20 | 77 | 7.82 |
| CS(=O)(=O)Nc1cccc([C@@H](O)CNCCOc2ccc3c(C4CCC4)n[nH]c3c2)c1 [Example 2, (R)—N-(3-(1-Hydroxy-2-(2-(3-cyclobutylindazol-6-yloxy)ethylamino)ethyl)phenyl)methanesulfonamide] | > 1000 | – | 10 | 68 | 7.25 |
